Laboratory results taken from patent US20100080762A1, “SKIN CARE COMPOSITION” (priority 2006, published 2010).

Tests used:
Type in all cases: cell-based, human
[1] = tested on: Interleukin (IL)6; experiment: HaCaT keratinocytes, base line production of IL6 (no TNFα), Experiment 2
Method: (§1) In a second assay, the human keratinocyte cell line HaCat was stimulated with the inflammatory cytokine TNFα and the release of Interleukin (IL)6 into the medium was analysed with a commercially available “Enzyme Linked Immunosorbent Assay” (ELISA).
HaCaT cells were cultivated under the conditions explained in detail in Wertz et al., Free Radical Biology & Medicine, Vol. 37, No. 5, pp. 654-670, 2004. Cells were pre-cultivated in medium containing with lycopene at a concentration of 1 μmol/L for 48 h to give the cells sufficient time to accumulate lycopene. Lycopene was solubilized in a stock solution with Tetrahydrofuran (THF) and diluted into the medium such that the end concentration was 0.1% THF. […] Cells were harvested by trypsinisation and counted according to standard procedures. Il6 levels in the medium were standardized to the number of cells in the wells and expressed as pg/10^6 cells
This experiment was performed to investigate whether two other carotenoid representatives, beta-carotene and beta-cryptoxanthin, are able to reduce the general base line production of inflammatory mediators of normal skin

[2] = tested on: HBD2; experiment: Cytokine mix-induced keratinocyte inflammation model, HBD2 mRNA expression (real-time PCR); conditions: NHEK; for HBD2, % compared to the control treated only with cytokine mix: 2 h pre-treatment, cytokine mix 24 h
Method: (§2) Two assays were performed to investigate the effect of selected compounds of this invention in an inflammation model with human skin keratinocytes.
(§3) In this model, the association of 3 cytokines that induce a strong synergistic effect on keratinocytes in culture (Boniface K, Diveu C, Morel F, Pedretti N, Froger J, Ravon E, Garcia M, Venereau E, Preisser L, Guignouard E, Guillet G, Dagregorio G, Pene J, Moles J P, Yssel H, Chevalier S, Bernard F X, Gascan H, Lecron J C. Oncostatin M secreted by skin infiltrating T lymphocytes is a potent keratinocyte activator involved in skin inflammation. J Immunol. 2007 Apr. 1;178(7):4615-22), is used to measure the expression of selected markers for keratinocyte inflammation: the antibacterial/chemoattractive markers S100A7/psoriasin and defensin HBD2/4
(§4) Normal human epidermal keratinocytes (NHEK pool K015, 3e passage) were cultured under the following conditions: • Culture: 37° C., 5% CO2 • Culture medium: SFM (Invitrogen 17005075) • Epidermal Growth Factor 0.25 ng/ml and pituitary extract 25 μg/ml • (EGF, EP, Invitrogen 17005075) • Gentamycine 25 μg/ml (Sigma G1397) • Assay medium: SFM without EGF and pituitary extract (Invitrogen 17005075)
(§5) Keratinocytes were pre-cultivated in culture medium. At confluence, the culture medium was changed into assay medium (SFM without EGF and pituitary extract) containing or not (control) the test compounds and the cells were pre-treated for 2 h at 37° C. and 5% CO2. At the end of the pre-treatment, the cytokine mix consisting of oncostatin M (OSM), IL-17 and […], was added to the cultures for 24 h at 37° C. and 5% CO2 (a non-treated and non-stimulated control was run in parallel). At the end of the experiment, the cells were washed in PBS buffer (Invitrogen 14190094) and immediately frozen at −80° C. with 300 μl per well of Tri-reagent (Sigma T9424).
(§6) Primers couples allowing the amplification of a specific PCR product from each selected marker were used. Liver glyceraldehyde 3-phosphate dehydrogenase (G3PDH) was used as a reference marker in this experiment.
Defensin beta 4 (DEFB4), beta-defensin 2 (hBD2, DEFB2);
skin-antimicrobial peptide 1 (SAP1) HBD2 NM_004942
(§7) RNA Extraction and Reverse Transcription • Extraction of total RNA by Tri-Reagent according to the protocol recommended by the supplier. • Elimination of contaminant DNA by DNAse treatment using the “DNA-free” system (Ambion). • Reverse-transcription of mRNA in the presence of oligo(dT) and Superscript II reversetranscriptase (Invitrogen).
(§8) The PCR reactions (Polymerase Chain Reactions) were performed using the LightCycler® system (Roche Molecular Systems Inc.) according to the protocol recommended by the supplier. This system allows rapid and powerful PCR reactions.
(§9) The reaction mix (10 μl final) was added as follows: • 2.5 μl of cDNA diluted at 1/10e. • primers forward and reverse • reagent mix (Roche) containing tag DNA polymerase, SYBR Green I and MgCl2.
(§10) The incorporation of fluorescence in amplified DNA was measured continuously during the PCR cycles. […] The RE value was expressed in arbitrary units (AU) according to the formula:
(§11) (½ number of cycles)×10^6

[3] = tested on: S100A7/psoriasin; experiment: Cytokine mix-induced keratinocyte inflammation model, S100A7 mRNA expression (real-time PCR); conditions: NHEK; for S100A7, % compared to the control treated only with cytokine mix: 2 h pre-treatment, cytokine mix 24 h
Method: as §2, §3, §4, §5, §6, §7, §8, §9, §10, §11

[4] = tested on: Interleukin (IL)6; experiment: TNFα-stimulated HaCaT keratinocytes, release of IL6 into the medium (ELISA), Experiment 1
Method: as §1
HaCaT cells were cultivated under the conditions explained in detail in Wertz et al., Free Radical Biology & Medicine, Vol. 37, No. 5, pp. 654-670, 2004. Cells were pre-cultivated in medium containing with lycopene at a concentration of 1 μmol/L for 48 h to give the cells sufficient time to accumulate lycopene. Lycopene was solubilized in a stock solution with Tetrahydrofuran (THF) and diluted into the medium such that the end concentration was 0.1% THF. After the pre-incubation period, cells were stimulated with […] TNFα for 5 h, after which the medium was collected and frozen. Cells were harvested by trypsinisation and counted according to standard procedures. Il6 levels in the medium were standardized to the number of cells in the wells and expressed as pg/10^6 cells

Molecule | Effect on base line IL6 secretion (in words) [1] | IL6 pg/10^6 cells ± SD ([1]; 0.1 μmol/L) [pg/10^6 cells] | IL6 pg/10^6 cells ± SD ([1]; 0.25 μmol/L) [pg/10^6 cells] | IL6 pg/10^6 cells ± SD ([1]; 0.5 μmol/L) [pg/10^6 cells] | HBD2, % compared to the control treated only with cytokine mix ([2]; 0.2 μmol/L) [%] | HBD2, % compared to the control treated only with cytokine mix ([2]; 1.0 μmol/L) [%] | HBD2, % compared to the control treated only with cytokine mix ([2]; 5.0 μmol/L) [%] | Effect on cytokine mix induction of HBD2/4 mRNA (in words) [2] | S100A7, % compared to the control treated only with cytokine mix ([3]; 0.2 μmol/L) [%] | S100A7, % compared to the control treated only with cytokine mix ([3]; 1.0 μmol/L) [%] | S100A7, % compared to the control treated only with cytokine mix ([3]; 5.0 μmol/L) [%] | Effect on cytokine mix induction of S100A7 mRNA (in words) [3] | Effect on reaction of keratinocytes to pro-inflammatory stimulus (in words) [4] | IL6 pg/10^6 cells ± SD ([1]; 1.0 μmol/L) [pg/10^6 cells] | IL6 pg/10^6 cells ± SD ([1]; 3.0 μmol/L) [pg/10^6 cells]
CC1=C(/C=C/C(C)=C/C=C/C(C)=C/C=C/C=C(C)/C=C/C=C(C)/C=C/C2=C(C)C[C@@H](O)CC2(C)C)C(C)(C)CCC1 [Beta-cryptoxanthin, beta-cryptoxanthin] | moderate effect | 264.76 | 268.46 | 286.77 | – | – | – | – | – | – | – | – | – | – | –
(−)-Epigallocatechin gallate [EGCG] | – | – | – | – | 59 | 43 | 33 | strongly inhibited | 66 | 20 | 27 | strongly inhibited | – | – | –
Oc1ccc(C=Cc2cc(O)cc(O)c2)cc1 [Resveratrol, resveratrol] | – | – | – | – | 61 | 51 | 47 | strongly inhibited | 68 | 66 | 53 | strongly inhibited | – | – | –
CC(C)=CCC/C(C)=C/C=C/C(C)=C/C=C/C(C)=C/C=C/C=C(C)/C=C/C=C(C)/C=C/C=C(\C)CCC=C(C)C [Lycopene, lycopene] | – | – | – | – | – | – | – | – | – | – | – | – | significantly reduce | – | –
OCCc1ccc(O)c(O)c1 [Hydroxytyrosol, hydroxytyrosol] | – | – | – | – | 50 | 51 | 40 | – | 60 | 57 | 49 | – | – | – | –
CC1=C(/C=C/C(C)=C/C=C/C(C)=C/C=C/C=C(C)/C=C/C=C(C)/C=C/C2=C(C)CCCC2(C)C)C(C)(C)CCC1 [Beta-carotene, beta-carotene] | can reduce the base line level | 315.86 | 225.15 | – | – | – | – | – | – | – | – | – | – | 241.8 | 291.85
